Source: paper PMC10510756 (Chemical Science, 2023)

Key:
[1] = tested on: Cy5-SAM-VI RS (RNA, riboswitch) GGCAUUGUGCCUCGCAUUGCACUCCGCGGGGCGAUAAGUCCUGAAAAGGGAUGUC; experiment: MST, 5'-Cy5-labelled RNA; conditions: 100 mM KCl, 25 mM MgCl2; 50 mM Tris-HCl pH 7.5, 25 °C, 20 nM RNA
[2] = tested on: SAM-I RS (RNA, riboswitch) GGCUUAUCAAGAGAGGGGGAGCGACUGGCGCGAAGAACCCCGGCAACCAGAAAUGGUGCCAAUUCCUGCAGCGGAAACGUUGAAAGAUGAGCCG; experiment: MST, SybrGold (1x) non-covalent dye; conditions: 100 mM KCl, 25 mM MgCl2; 50 mM Tris-HCl pH 7.5, 25 °C, 100 nM RNA
[3] = tested on: SAM-VI RS (RNA, riboswitch) GGCAUUGUGCCUCGCAUUGCACUCCGCGGGGCGAUAAGUCCUGAAAAGGGAUGUC; experiment: MST, SybrGold (1x) non-covalent dye; conditions: 100 mM KCl, 25 mM MgCl2; 50 mM Tris-HCl pH 7.5, 25 °C, 100 nM RNA
[4] = tested on: Neomycin aptamer (RNA, aptamer) GGCUGCUUGUCCUUUAAUGGUCCAGUC; experiment: MST, Syto 59 (1x) non-covalent dye; conditions: 100 mM KCl, 25 mM MgCl2; 50 mM Tris-HCl pH 7.5, 25 °C, 100 nM RNA; apparent; below tight-binding limit
[5] = tested on: PreQ1 RS (RNA, riboswitch) GGAGAGGUUCUAGCUACACCUCUAUAAAAAACUAA; experiment: MST, SybrGold (1x) non-covalent dye; conditions: 100 mM KCl, 25 mM MgCl2; 50 mM Tris-HCl pH 7.5, 25 °C, 100 nM RNA; apparent; near tight-binding limit
METTL3/14 = METTL3/14 (Homo sapiens, UniProt Q86U44)
METTL3/14, sequence (Q86U44 2-580): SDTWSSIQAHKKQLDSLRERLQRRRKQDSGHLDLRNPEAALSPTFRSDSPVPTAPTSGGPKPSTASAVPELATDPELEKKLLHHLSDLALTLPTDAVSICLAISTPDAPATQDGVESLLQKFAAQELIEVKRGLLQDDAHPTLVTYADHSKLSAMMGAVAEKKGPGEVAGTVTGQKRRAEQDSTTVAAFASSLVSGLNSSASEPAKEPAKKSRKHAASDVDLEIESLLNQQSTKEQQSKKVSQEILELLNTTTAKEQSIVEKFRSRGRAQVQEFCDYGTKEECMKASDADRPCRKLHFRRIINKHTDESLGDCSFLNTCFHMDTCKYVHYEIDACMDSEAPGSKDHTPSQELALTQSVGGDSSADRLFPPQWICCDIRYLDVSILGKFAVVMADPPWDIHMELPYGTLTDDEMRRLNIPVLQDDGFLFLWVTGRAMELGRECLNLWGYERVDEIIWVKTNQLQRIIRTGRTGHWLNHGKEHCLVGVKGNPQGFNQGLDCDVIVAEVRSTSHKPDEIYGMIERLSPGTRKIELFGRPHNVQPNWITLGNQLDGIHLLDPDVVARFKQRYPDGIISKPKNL
METTL3/14, sequence (Q9HCE5 whole entry partner): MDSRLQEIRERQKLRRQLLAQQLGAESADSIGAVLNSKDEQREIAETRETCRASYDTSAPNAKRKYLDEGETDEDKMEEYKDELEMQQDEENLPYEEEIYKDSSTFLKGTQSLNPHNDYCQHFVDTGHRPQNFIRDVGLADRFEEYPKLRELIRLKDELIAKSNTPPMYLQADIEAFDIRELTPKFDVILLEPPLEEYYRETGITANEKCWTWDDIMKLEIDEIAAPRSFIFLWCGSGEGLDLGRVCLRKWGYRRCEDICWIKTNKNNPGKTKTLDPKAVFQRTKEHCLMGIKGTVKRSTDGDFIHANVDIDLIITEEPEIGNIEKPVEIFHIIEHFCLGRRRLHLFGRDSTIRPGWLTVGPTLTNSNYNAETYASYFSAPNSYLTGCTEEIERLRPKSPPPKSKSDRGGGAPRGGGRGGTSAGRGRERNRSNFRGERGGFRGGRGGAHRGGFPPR

SMILES | KD [1] | KD [2] | KD [3] | other results
C[S+](CC[C@H](N)C(=O)O)C[C@H]1O[C@@H](n2cnc3c(N)ncnc32)[C@H](O)[C@@H]1O (stereo partly drawn) | 0.699 ± 0.185 µM | 0.157 µM | 0.953 µM | –
NC[C@@H]1O[C@H](O[C@H]2[C@@H](O)[C@H](O[C@@H]3[C@@H](O)[C@H](N)C[C@H](N)[C@H]3O[C@H]3O[C@H](CN)[C@@H](O)[C@H](O)[C@H]3N)O[C@@H]2CO)[C@H](N)[C@@H](O)[C@@H]1O | – | – | – | KD,app [4]: 0.0296 µM
NCc1c[nH]c2nc(N)[nH]c(=O)c12 | – | – | – | KD,app [5]: 0.0448 µM
Nc1ncnc2c1ncn2[C@@H]1O[C@H](CSCC[C@H](N)C(=O)O)[C@@H](O)[C@H]1O | 23.6 ± 7.0 µM | 137 µM | 10 µM | –
C[S+](CC[C@H](N)C(=O)[O-])C[C@H]1O[C@@H](n2cnc3c(N)ncnc32)[C@H](O)[C@@H]1O (stereo partly drawn) [S-adenosylmethionine] | – | – | – | Km (METTL3/14): 0.226 µM
